These are literature values, as cited in paper PMC11406440 (Food and chemical toxicology : an international journal …, 2024).

Read-outs that look alike come from different tables or passages of the source.

One series has as its system male rats. The note with it: 3 and 10 mg/kg/d; ref Butenhoff et al., 2009; cited from earlier work.
The next series concerns mice. The note with it: dermal exposure; ref Weatherly et al., 2021, 2023; cited from earlier work.
The conditions of series [1]: 5% dermal exposure, same conditions; ref Weatherly et al., 2023; cited from earlier work.
For series [2] the following is noted: ex vivo human full-thickness skin; ref Franko et al., 2012; cited from earlier work.
The conditions of series [3]: 4-day dermal exposure, ref Franko et al., 2012, cited from earlier work.
For series [4] the following is noted: ref ATSDR, 2021; cited from earlier work.
The test system of a further series is IgM response to SRBC. The following applies: cited from earlier work.
For series [5] the following is noted: ex vivo mouse skin; ref Franko et al., 2012; cited from earlier work.

Take `O=S(=O)([O-])C(F)(F)C(F)(F)C(F)(F)C(F)(F)C(F)(F)C(F)(F)F.[K+]` [K^+PFHxS, PFHxS potassium salt]: the Liver weight entry with male rats is recorded as “increase”.

As to `O=C(O)C(F)(F)C(F)(F)C(F)(F)F` [PFBA, heptafluorobutyric acid], in the series on mice, the Cholesterol entry is listed as “increased” and the Glucose levels result is listed as “increased”.

In the case of `O=C(O)C(F)(F)C(F)(F)C(F)(F)C(F)(F)C(F)(F)C(F)(F)F` [PFHpA, perfluoroheptanoic acid], in the series on mice, the Cholesterol result is reported as “no effect” and the Glucose levels result is given as “increased”. Also, in series [1], the Average serum concentration is 137 µg/mL and the Average urine concentration was 1200 µg/mL.

With `O=C(O)C(F)(F)C(F)(F)C(F)(F)C(F)(F)C(F)(F)F` [PFHxA, perfluorohexanoic acid], in the series on mice, the Cholesterol entry is on record as “no effect” and the Glucose levels result is on record as “increased”. Besides, in series [1], the Average serum concentration was 4.8 µg/mL and the Average urine concentration was 1700 µg/mL.

Turning to `O=C(O)C(F)(F)C(F)(F)C(F)(F)C(F)(F)C(F)(F)C(F)(F)C(F)(F)F` [PFOA, perfluorooctanoic acid], the Total absorbable fraction in series [2] was 69%; in series [5] it was 50%. Besides, the “Serum PFOA level” value was 152 ± 14 µg/mL in series [3] (0.5% PFOA) and 226 ± 14 µg/mL in series [3] (2% PFOA). Besides, the Half-life in humans in series [4] is given as 2.1–10.1 years. Besides, in the series with IgM response to SRBC (15 days, 3.75–30 mg/kg via drinking water, ref Dewitt et al., 2008), the “SRBC IgM antibody titers” value is reported as “reduce”. Further, in the series on IgM response to SRBC (dermal exposure, ref Shane et al., 2020), the “IgM response to SRBC” value is listed as “suppression”.

On to `O=C(O)C(F)(F)C(F)(F)C(F)(F)C(F)(F)F` [PFPeA, perfluoropentanoic acid], for which, in the series with mice, the Cholesterol entry is “no effect” and the Glucose levels result is reported as “increased”.
